According to ChEMBL document CHEMBL4257449, “New N-(2-phenyl-4-oxo-1,3-thiazolidin-3-yl)-1,2-benzothiazole-3-carboxamides and acetamides as antimicrobial agents” (2017):
≈ marks a conversion by molar mass, not a printed value.

Columns and labels:
Aspergillus niger [1] = assay: Fungicidal activity against Aspergillus niger ATCC 6275 incubated for 72 hrs followed by serial sub-cultivation for 72 hrs and measured after 72 hrs by serial dilution method; assay type: functional
Aspergillus fumigatus [2] = assay: Fungicidal activity against Aspergillus fumigatus incubated for 72 hrs followed by serial sub-cultivation for 72 hrs and measured after 72 hrs by serial dilution method; assay type: functional
Salmonella typhimurium [3] = assay: Antibacterial activity against Salmonella typhimurium ATCC 13311 after 24 hrs by microdilution method; assay type: functional, Salmonella enterica subsp. enterica serovar Typhimurium; conditions: Salmonella enterica, ATCC 13311, 24 h
Trichoderma viride [4] = assay: Fungicidal activity against Trichoderma viride IAM 5061 incubated for 72 hrs followed by serial sub-cultivation for 72 hrs and measured after 72 hrs by serial dilution method; assay type: functional
Aspergillus ochraceus [5] = assay: Antifungal activity against Aspergillus ochraceus ATCC 12066 after 72 hrs by serial dilution method; assay type: functional; conditions: ATCC 12066, 72 h
Enterobacter cloacae [6] = assay: Antibacterial activity against Enterobacter cloacae after 24 hrs by microdilution method; assay type: functional
Salmonella typhimurium [7] = assay: Bactericidal activity against Salmonella typhimurium ATCC 13311 incubated for 24 hrs followed by serial sub-cultivation and measured after 24 hrs by microdilution method; assay type: functional, Salmonella enterica subsp. enterica serovar Typhimurium
Pseudomonas aeruginosa [8] = assay: Bactericidal activity against Pseudomonas aeruginosa ATCC 27853 incubated for 24 hrs followed by serial sub-cultivation and measured after 24 hrs by microdilution method; assay type: functional
Pseudomonas aeruginosa [9] = assay: Antibacterial activity against Pseudomonas aeruginosa ATCC 27853 after 24 hrs by microdilution method; assay type: functional; conditions: ATCC 27853, 24 h
Listeria monocytogenes [10] = assay: Antibacterial activity against Listeria monocytogenes NCTC 7973 after 24 hrs by microdilution method; assay type: functional; conditions: NCTC 7973, 24 h
Candida albicans [11] = assay: Fungicidal activity against Candida albicans incubated for 72 hrs followed by serial sub-cultivation for 72 hrs and measured after 72 hrs by serial dilution method; assay type: functional
Micrococcus flavus [12] = assay: Bactericidal activity against Micrococcus flavus ATCC 10240 incubated for 24 hrs followed by serial sub-cultivation and measured after 24 hrs by microdilution method; assay type: functional
Bacillus cereus [13] = assay: Bactericidal activity against Bacillus cereus incubated for 24 hrs followed by serial sub-cultivation and measured after 24 hrs by microdilution method; assay type: functional
Talaromyces funiculosus [14] = assay: Antifungal activity against Penicillium funiculosum ATCC 36839 after 72 hrs by serial dilution method; assay type: functional; conditions: ATCC 36839, 72 h
Penicillium ochrochloron [15] = assay: Fungicidal activity against Penicillium ochrochloron ATCC 9112 incubated for 72 hrs followed by serial sub-cultivation for 72 hrs and measured after 72 hrs by serial dilution method; assay type: functional
Escherichia coli [16] = assay: Antibacterial activity against Escherichia coli ATCC 35210 after 24 hrs by microdilution method; assay type: functional; conditions: ATCC 35210, 24 h
Bacillus cereus [17] = assay: Antibacterial activity against Bacillus cereus after 24 hrs by microdilution method; assay type: functional
Micrococcus flavus [18] = assay: Antibacterial activity against Micrococcus flavus ATCC 10240 after 24 hrs by microdilution method; assay type: functional; conditions: ATCC 10240, 24 h
Aspergillus ochraceus [19] = assay: Fungicidal activity against Aspergillus ochraceus ATCC 12066 incubated for 72 hrs followed by serial sub-cultivation for 72 hrs and measured after 72 hrs by serial dilution method; assay type: functional
Talaromyces funiculosus [20] = assay: Fungicidal activity against Penicillium funiculosum ATCC 36839 incubated for 72 hrs followed by serial sub-cultivation for 72 hrs and measured after 72 hrs by serial dilution method; assay type: functional
Candida albicans [21] = assay: Antifungal activity against Candida albicans after 72 hrs by serial dilution method; assay type: functional
Enterobacter cloacae [22] = assay: Bactericidal activity against Enterobacter cloacae incubated for 24 hrs followed by serial sub-cultivation and measured after 24 hrs by microdilution method; assay type: functional
Penicillium ochrochloron [23] = assay: Antifungal activity against Penicillium ochrochloron ATCC 9112 after 72 hrs by serial dilution method; assay type: functional; conditions: ATCC 9112, 72 h
Aspergillus niger [24] = assay: Antifungal activity against Aspergillus niger ATCC 6275 after 72 hrs by serial dilution method; assay type: functional; conditions: ATCC 6275, 72 h
Aspergillus versicolor [25] = assay: Antifungal activity against Aspergillus versicolor ATCC 11730 after 72 hrs by serial dilution method; assay type: functional; conditions: ATCC 11730, 72 h
Aspergillus versicolor [26] = assay: Fungicidal activity against Aspergillus versicolor ATCC 11730 incubated for 72 hrs followed by serial sub-cultivation for 72 hrs and measured after 72 hrs by serial dilution method; assay type: functional
Aspergillus fumigatus [27] = assay: Antifungal activity against Aspergillus fumigatus after 72 hrs by serial dilution method; assay type: functional
Staphylococcus aureus [28] = assay: Antibacterial activity against Staphylococcus aureus ATCC 6538 after 24 hrs by microdilution method; assay type: functional; conditions: ATCC 6538, 24 h
Escherichia coli [29] = assay: Bactericidal activity against Escherichia coli ATCC 35210 incubated for 24 hrs followed by serial sub-cultivation and measured after 24 hrs by microdilution method; assay type: functional
Staphylococcus aureus [30] = assay: Bactericidal activity against Staphylococcus aureus ATCC 6538 incubated for 24 hrs followed by serial sub-cultivation and measured after 24 hrs by microdilution method; assay type: functional
Trichoderma viride [31] = assay: Antifungal activity against Trichoderma viride IAM 5061 after 72 hrs by serial dilution method; assay type: functional; conditions: IAM 5061, 72 h
Listeria monocytogenes [32] = assay: Bactericidal activity against Listeria monocytogenes NCTC 7973 incubated for 24 hrs followed by serial sub-cultivation and measured after 24 hrs by microdilution method; assay type: functional

| MIC (Salmonella typhimurium [3]) [µM] | MIC (Aspergillus ochraceus [5]) [µM] | MIC (Enterobacter cloacae [6]) [µM] | MIC (Pseudomonas aeruginosa [9]) [µM] | MIC (Listeria monocytogenes [10]) [µM] | MIC (Talaromyces funiculosus [14]) [µM] | MIC (Escherichia coli [16]) [µM] | MIC (Bacillus cereus [17]) [µM] | MIC (Micrococcus flavus [18]) [µM] | Compound | MFC99.5 (Aspergillus niger [1]) [×10⁻² umol/ml] | MFC99.5 (Aspergillus fumigatus [2]) [×10⁻² umol/ml] | MFC99.5 (Trichoderma viride [4]) [×10⁻² umol/ml] | MBC99.5 (Salmonella typhimurium [7]) [×10⁻² umol/ml] | MBC99.5 (Pseudomonas aeruginosa [8]) [×10⁻² umol/ml] | MFC99.5 (Candida albicans [11]) [×10⁻² umol/ml] | MBC99.5 (Micrococcus flavus [12]) [×10⁻² umol/ml] | MBC99.5 (Bacillus cereus [13]) [×10⁻² umol/ml] | MFC99.5 (Penicillium ochrochloron [15]) [×10⁻² umol/ml] | MFC99.5 (Aspergillus ochraceus [19]) [×10⁻² umol/ml] | MFC99.5 (Talaromyces funiculosus [20]) [×10⁻² umol/ml] | further results |
| --- | --- | --- | --- | --- | --- | --- | --- | --- | --- | --- | --- | --- | --- | --- | --- | --- | --- | --- | --- | --- | --- |
| 100 (≈ 40.4 µg/mL) | 74 (≈ 29.9 µg/mL) | 198 (≈ 80 µg/mL) | 198 (≈ 80 µg/mL) | 198 (≈ 80 µg/mL) | 100 (≈ 40.4 µg/mL) | 198 (≈ 80 µg/mL) | 198 (≈ 80 µg/mL) | 198 (≈ 80 µg/mL) | O=C(Cc1nsc2ccccc12)NN1C(=O)CSC1c1cccc(Cl)c1 (stereo unspecified) | 19.2 | 37.2 | 10 | 37.2 | 37.2 | 19.8 | 37.2 | 37.2 | 10 | 10 | 19.8 | MIC (Candida albicans [21]): 100 µM (≈ 40.4 µg/mL); MBC99.5 (Enterobacter cloacae [22]): 37.2 ×10⁻² umol/ml; MIC (Penicillium ochrochloron [23]): 74 µM (≈ 29.9 µg/mL); MIC (Aspergillus niger [24]): 100 µM (≈ 40.4 µg/mL); MIC (Aspergillus versicolor [25]): 100 µM (≈ 40.4 µg/mL); MFC99.5 (Aspergillus versicolor [26]): 19.2 ×10⁻² umol/ml; MIC (Aspergillus fumigatus [27]): 100 µM (≈ 40.4 µg/mL); MIC (Staphylococcus aureus [28]): 100 µM (≈ 40.4 µg/mL); MBC99.5 (Escherichia coli [29]): 37.2 ×10⁻² umol/ml; MBC99.5 (Staphylococcus aureus [30]): 37.2 ×10⁻² umol/ml; MIC (Trichoderma viride [31]): 50 µM (≈ 20.2 µg/mL); MBC99.5 (Listeria monocytogenes [32]): 37.2 ×10⁻² umol/ml |
| 31.5 (≈ 10 µg/mL) | 15.8 (≈ 5.01 µg/mL) | 63 (≈ 20 µg/mL) | 252 (≈ 80 µg/mL) | 252 (≈ 80 µg/mL) | 31.5 (≈ 10 µg/mL) | 252 (≈ 80 µg/mL) | 126 (≈ 40 µg/mL) | 252 (≈ 80 µg/mL) | O=C(N/N=C/c1c(F)cccc1F)c1nsc2ccccc12 | 50.4 | 25.2 | 25.2 | 6.3 | 50.4 | 50.4 | 50.4 | 25.2 | 25.2 | 12.6 | 12.6 | MIC (Candida albicans [21]): 252 µM (≈ 80 µg/mL); MBC99.5 (Enterobacter cloacae [22]): 25.2 ×10⁻² umol/ml; MIC (Penicillium ochrochloron [23]): 126 µM (≈ 40 µg/mL); MIC (Aspergillus niger [24]): 252 µM (≈ 80 µg/mL); MIC (Aspergillus versicolor [25]): 15.8 µM (≈ 5.01 µg/mL); MFC99.5 (Aspergillus versicolor [26]): 12.6 ×10⁻² umol/ml; MIC (Aspergillus fumigatus [27]): 15.8 µM (≈ 5.01 µg/mL); MIC (Staphylococcus aureus [28]): 126 µM (≈ 40 µg/mL); MBC99.5 (Escherichia coli [29]): 50.4 ×10⁻² umol/ml; MBC99.5 (Staphylococcus aureus [30]): 25.2 ×10⁻² umol/ml; MIC (Trichoderma viride [31]): 126 µM (≈ 40 µg/mL); MBC99.5 (Listeria monocytogenes [32]): 50.4 ×10⁻² umol/ml |
| 198 (≈ 80 µg/mL) | 100 (≈ 40.4 µg/mL) | 273 (≈ 110 µg/mL) | 372 (≈ 150 µg/mL) | 372 (≈ 150 µg/mL) | 100 (≈ 40.4 µg/mL) | 198 (≈ 80 µg/mL) | 198 (≈ 80 µg/mL) | 273 (≈ 110 µg/mL) | O=C(Cc1nsc2ccccc12)NN1C(=O)CSC1c1ccccc1Cl (stereo unspecified) | 19.8 | 74.4 | 10 | 37.2 | 74.4 | 37.2 | 37.2 | 37.2 | 19.8 | 19.8 | 19.8 | MIC (Candida albicans [21]): 198 µM (≈ 80 µg/mL); MBC99.5 (Enterobacter cloacae [22]): 37.2 ×10⁻² umol/ml; MIC (Penicillium ochrochloron [23]): 144 µM (≈ 58.2 µg/mL); MIC (Aspergillus niger [24]): 144 µM (≈ 58.2 µg/mL); MIC (Aspergillus versicolor [25]): 74 µM (≈ 29.9 µg/mL); MFC99.5 (Aspergillus versicolor [26]): 10 ×10⁻² umol/ml; MIC (Aspergillus fumigatus [27]): 372 µM (≈ 150 µg/mL); MIC (Staphylococcus aureus [28]): 198 µM (≈ 80 µg/mL); MBC99.5 (Escherichia coli [29]): 37.2 ×10⁻² umol/ml; MBC99.5 (Staphylococcus aureus [30]): 37.2 ×10⁻² umol/ml; MIC (Trichoderma viride [31]): 74 µM (≈ 29.9 µg/mL); MBC99.5 (Listeria monocytogenes [32]): 74.4 ×10⁻² umol/ml |
